A word on the EC50: it is the concentration that produces a half-maximal response. One may read the IC50 as the point on the concentration scale where inhibition reaches its midpoint.

The structures appear in SMILES notation. “And” between values parts separate entries of the source, which are not always exact repeats. Identical values can stand only once. “Also recorded” adds a separate entry of the source.

Data on 5 compounds can be found in article PMC5614969, “High-Affinity Functional Fluorescent Ligands for Human β-Adrenoceptors” (Scientific Reports, 2017).

For data set [1], the target named is T1, β2AR (Homo sapiens, UniProt P07550). Kind of data set: cAMP FRET sensor (TEpacVV) agonist assay in HEK 293 cells. Type of data set: cell-based. To be noted: HEK 293 expressing 3′,5′-cAMP FRET sensor, 30 min incubation, room temperature; for EC50: read-out: EC50 (mean ± SD). As for the experimental part:
Upon cAMP binding, the sensor undergoes a conformational change resulting in a decrease of the FRET efficiency between two fluorescent proteins: mTurquoise - a version of cyan fluorescent protein (CFP) as the donor, and yellow fluorescent protein (YFP) as the acceptor (Fig. 3a).
The intracellular cyclic adenosine monophosphate (cAMP) levels were determined with HEK 293 cells expressing a 3′,5′-cAMP FRET sensor. The cells were a generous gift from Ruud Hovius from École poly-technique fédérale de Lausanne (EPFL). The cAMP production induces a conformational switch in ^TEpac^VV and causes a decrease in FRET efficiency, i.e. a decreased energy transfer between the two fluorescent proteins (donor mTurquoise and acceptor YFP)[32].
(§1) The culture was maintained by subculturing the cells every 4 to 5 days using the standard trypsinization procedure. Before measurements, cells were trypsinated and transferred in a 96-well glass bottom plate (MatTek Corporation; Cat. No. P96GC-1.5–5-F) to contain 10,000–30,000 cells per well in 200 µL of DMEM media. After 24 h incubation in 5% CO2 at 37 °C, the cells were washed with HBSS pH 7.2 (200 µL), and the wells were filled with 200 µL HBSS. The DMSO stock solutions of the fluorescent probes were diluted 5,000 times in HBSS and used in experiments. […] The fluorescent ligand solutions of different concentrations in HBSS were premixed with the isoprenaline solution. 50 µL of a final solution was added to each well and the measurement was started upon addition and continued for 1 h in 10 min intervals between the readouts (inclusive).
(§2) The ligands were added using an automated pipette to initiate the sensor response. FRET readout from the cAMP sensor was performed on a multiwell plate reader Spark 20 M (Tecan) at room temperature (25 °C). Fluorescence readout amplitudes were calculated from time series for different ligand concentrations, following background subtraction (media only). […] Data were derived from 3 independent experiments and each independent experiment was performed in triplicate.
(§3) Sensor response R(CFP/FRET) was calculated using (1):1 R(CFP/FRET)=(FimTurquoise−FbkgmTurquoise)/(FiFRET−FbkgFRET) where F i ^mTurquoise – mTurquoise fluorescence intensity in the wells with cells; F bkg ^mTurquoise - mTurquoise fluorescence intensity in the control wells without cells; F i ^FRET – FRET signal intensity in the wells with cells; F bkg ^FRET – FRET signal intensity in the control wells without cells. For every result, R(CFP/FRET) ratio was normalized to the R(CFP/FRET) response of DMSO sample.

The target in data set [2] is T2, β2AR-YFP fusion protein (Homo sapiens, UniProt P07550).
T2 construct: host or cells: U2OS
Kind of data set: Confocal imaging of living U2OS cells expressing β2AR-YFP (staining, internalization, competitive displacement, no-wash). Type of data set: cell-based. To be noted: for Staining performance / Receptor internalization: U2OS cells expressing β2AR-YFP; for Staining performance: 610CP ligands at 1.9 µM (19) and 2.5 µM (16). As for the experimental part: U2OS cells (ATCC) were cultured in high-glucose DMEM (Dulbecco’s Modified Eagle medium, Thermo Fisher Scientific) supplemented with GlutaMAX-1 (Thermo Fisher Scientific) and 10% fetal bovine serum (FBS) (Thermo Fisher Scientific) in a humidified 5% CO2 incubator at 37 °C. CAPAN-1 cells (ATCC) were cultured in McCoy’s 5a Medium Modified supplemented with 10% fetal bovine serum (FBS) (Thermo Fisher Scientific) in a humidified 5% CO2 atmosphere at 37 °C. Cells were split every 3–5 days or at confluence. Cells were seeded in glass bottom 12-well plates (MatTek Corporation). […] We used 200,000 cells per well, 3 µg plasmid DNA and 3 µl of Lipofectamine 2000.
We performed imaging 48–72 h after transfection. Staining of the transfected cell was performed in Hanks’ balanced salt solution (HBSS, Lonza) without Phenol Red for 30–40 min at room temperature (to minimize internalization). Samples were washed two times with HBSS, and cells were imaged in DMEM (Thermo Fisher Scientific) supplemented with GlutaMAX-1 (Thermo Fisher Scientific) and 10% fetal bovine serum (FBS). For all staining experiments with cells, stock solutions of dyes in DMSO were used, and final DMSO content was < 0.5%. Imaging was performed on Leica SP8 (Leica Microsystems) or Abberior STED (Abberior Instruments GmbH) microscopes.
Competitive displacement experiment was performed in living U2OS cells expressing β2AR-YFP fusion protein.
Confocal imaging was performed on a Leica SP8 (Leica Microsystems, Mannheim, Germany) inverted confocal microscope equipped with an HC PL APO CS2 63x/1.40 Oil objective. Images were acquired using a 700 Hz bidirectional scanner, pixel size of 70 nm × 70 nm, pinhole of 95.6 µm diameter(1 AU) and frame averaging of 2.

A short description of data set [3]: Fluorescence increase upon addition of SDS to probe solutions. It counts as physicochemical. To be noted: addition of 0.1% SDS to ligand in PBS pH 7.4 with 1 mg/ml BSA; mean ± SD, n=3. As for the experimental part: Fluorescence spectra of 1 µM solution of fluorescent dyes and ligands in PBS pH 7.4, PBS pH 7.4 + 1 mg/ml BSA (Sigma) and with or without 0.1% SDS (Acros Organics) were recorded on a multiwell plate reader Spark 20 M (Tecan) in half-area black 96-well plates (Greiner Bio-One, cat. 675076) at room temperature (25 °C) after 2 h incubation. Fluorescence emission was recorded from 600 nm to 800 nm with excitation at 580 nm. The emission bandwidth for all measurements was set to 5 nm. The spectra were averaged from 3 individual experiments. Ratios F(BSA+SDS)/F(BSA) of fluorescence signals at 635 nm for 610CP, 645 nm for BODIPY 630/650-X and 655 nm for KK114 conjugates were calculated. The obtained results are summarized (Table 1 and Supplementary Fig. 7).

The target of data set [4] is T1, β2AR. The data set is described as follows: Staining and competitive binding in CAPAN-1 cells at endogenous β2AR expression. It counts as cell-based. To be noted: 100 nM probe (5 nM ab118171) with 10 µM BI-167107 or carazolol. Here is the method: To study the selectivity of β2AR staining at the endogenous expression levels, which are much lower compared to those in transiently β2AR expressing U2OS cells, we tested the performance of BI-167107 probes in pancreatic CAPAN-1 cells (Fig. 7c–f). […] Low density of β2AR in the plasma membrane of CAPAN-1 cells allowed us to measure of the lateral resolution in the STED images. When the cells were incubated with 100 nM BI-PEG-KK114 (18) ligand, we observed two-fold improvement in the resolution resulting in apparent structures of ~100 nm (Fig. 7d; Supplementary Table 4).
For staining of CAPAN-1 cells, fluorescent probes or mixtures of a probe and a competitor were incubated in McCoy’s 5a Medium Modified supplemented with 10% fetal bovine serum (FBS) for 30–40 min at room temperature. Afterwards, the samples were washed two times with HBSS, and cells were imaged in DMEM (Thermo Fisher Scientific) supplemented with GlutaMAX-1 (Thermo Fisher Scientific) and 10% fetal bovine serum (FBS). Imaging performed on Leica SP8 (Leica Microsystems) or Abberior STED (Abberior Instruments GmbH) microscopes.

A short description of data set [5]: pH dependence of ligand fluorescence. It counts as physicochemical. As for the experimental part:
pH dependence of βAR ligands fluorescence were recorded on a multiwell plate reader Spark 20 M (Tecan) in 96-well glass bottom plates (MatTek Corporation; Cat. No. PBK96G-1.5-5-F) in PBS solutions (pH 4.7–8.0) at room temperature (25 °C). The 100x stock solutions of ligands were prepared in DMSO.

Another data set concerns β1- and β2-adrenoceptors. On the set-up: method as in PMID 19875286. To be noted: racemic BI-167107; cited from earlier work.
The target in data set [6] is T1, β2AR. Kind of data set: cAMP FRET sensor assay, competitive displacement of isoprenaline by antagonists in HEK293 cells. It counts as cell-based. As for the experimental part: as §1, with “experiments. In the antagonist inhibition experiment, we used β1 and β2 adrenoceptor agonist isoprenaline (abcr GmbH) as a positive control causing cAMP elevation.” for “experiments.”
as §2, §3
K i ^app were calculated using the Cheng-Prusoff equation (2):2 Kiapp=IC50/[A]/EC50+1 where [A] – concentration of the isoprenaline; IC50 – fitted half maximal inhibitory concentration of labeled antagonist; EC50 – fitted half maximal response concentration of isoprenaline.

Data set [7] has as its target T2, β2AR-YFP fusion protein. Kind of data set: Confocal imaging of living U2OS cells expressing β2AR-YFP (staining, internalization, competitive displacement, no-wash). Type of data set: cell-based. To be noted: 90 min, 100 nM carazolol-KK114 (24), 5 nM ab118171, no washing.
[8] abbreviates: U2OS β2AR-YFP, 40 min, room temperature, washed.

T2 sequence (P07550 whole entry, the tested form may be a part): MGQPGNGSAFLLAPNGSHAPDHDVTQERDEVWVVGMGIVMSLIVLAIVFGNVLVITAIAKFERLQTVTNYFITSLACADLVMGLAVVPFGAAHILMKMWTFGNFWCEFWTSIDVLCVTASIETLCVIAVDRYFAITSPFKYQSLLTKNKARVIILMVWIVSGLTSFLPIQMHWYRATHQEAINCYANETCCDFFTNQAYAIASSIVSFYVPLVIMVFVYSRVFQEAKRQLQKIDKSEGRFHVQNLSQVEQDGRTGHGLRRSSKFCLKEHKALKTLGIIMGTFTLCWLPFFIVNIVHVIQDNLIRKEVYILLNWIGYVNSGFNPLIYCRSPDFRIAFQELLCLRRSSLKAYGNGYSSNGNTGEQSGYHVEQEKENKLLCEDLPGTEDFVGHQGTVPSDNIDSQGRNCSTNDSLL
T1 sequence (P07550 whole entry): as the sequence (P07550 whole entry, the tested form may be a part) above

With `Cc1c(CCC(=O)NCCOCCOCCNC(=O)c2ccc(C(=O)[O-])c(C3=C4C=CC(=[N+](C)C)C=C4C(C)(C)c4cc(N(C)C)ccc43)c2)cccc1CC(C)(C)NCC(O)c1ccc(O)c2c1OCC(=O)N2` (stereo not drawn) [BI-PEG-610CP (19)], on β2AR [1], the “EC50 (mean ± SD, nM)” value was “low nanomolar”; the EC50 was 600 pM and 620 pM. The Staining performance entry on β2AR-YFP fusion protein [2] is on record as “None”. The “Fluorescence increase (F BSA+SDS / F BSA)” value in data set [3] worked out at 1.2±0.3.
Take `Cc1c(CCC(=O)NCCOCCOCCNC(=O)CCCCCNC(=O)COc2ccc(/C=C/C3=[N+]4C(=Cc5ccc(-c6cccs6)n5[B-]4(F)F)C=C3)cc2)cccc1CC(C)(C)NCC(O)c1ccc(O)c2c1OCC(=O)N2` (stereo not drawn) [BI-PEG-BDY630 (17)]: the EC50 on β2AR [1] is 200 pM and 180 pM. At β2AR-YFP fusion protein [2], the Receptor internalization entry is “Yes” and the Staining performance result is “Strong”. The Competitive displacement result at β2AR-YFP fusion protein [2] (U2OS β2AR-YFP, 100 nM probe (5 nM ab118171) with 10 µM unlabeled BI-167107 or carazolol, 30 min) is listed as “Low background fluorescence”. For the same compound, on β2AR-YFP fusion protein [2] (setting [8]), the “confocal staining at 100 nM” value is recorded as “labelled the cells efficiently” and the “confocal staining at 250 nM” value is “unspecific fluorescence”. Moreover, the “competitive binding with excess unlabeled ligand” value at β2AR [4] is recorded as “strong off-target staining”. For the same compound, the “Fluorescence increase (F BSA+SDS / F BSA)” value in data set [3] was 10.5±1.7. Besides, in data set [5] (at pH 4.7 and 8.0 versus pH 6.0–7.0), the fluorescence decrease entry is given as “about 40%”.
Consider `Cc1ccccc1CC(C)(C)NCC(O)c1ccc(O)c2c1OCC(=O)N2` (stereo not drawn) [BI-167107], for which the “agonist classification at β-adrenoceptors” value with β1- and β2-adrenoceptors is “full agonist”.
As for `CC(C)(CCNC(=O)CCOCCOCCNC(=O)COc1ccc(/C=C/C2=[N+]3C(=Cc4ccc(-c5cccs5)n4[B-]3(F)F)C=C2)cc1)NC[C@H](O)COc1cccc2[nH]c3ccccc3c12` [ab118171, reference compound], the IC50 at β2AR [6] (displacement of 17 nM isoprenaline, readout immediately after addition of ligands (0 min), read-out: IC50 (mean ± SD)) was 74700 ± 36300 pM. The Ki on β2AR [6] (read-out: Ki app (mean ± SD)) amounted to 4800 ± 3600 pM. Also, at β2AR-YFP fusion protein [2], the Receptor internalization entry was “Weak” and the Staining performance entry was “Strong”. Besides, the “confocal staining at 5 nM” value on β2AR-YFP fusion protein [2] (U2OS β2AR-YFP, 5 nM, 40 min, room temperature, washed) is on record as “specific membrane localized fluorescence”. At β2AR-YFP fusion protein [2] (setting [8]), the “confocal staining at 100 nM” value was “non-specific dotted background” and the “confocal staining at 250 nM” value is “non-specific dotted background”. The “competitive binding with excess unlabeled ligand” value on β2AR [4] is reported as “not possible to achieve full displacement”. Moreover, the “Fluorescence increase (F BSA+SDS / F BSA)” value in data set [3] turned out to be 8.2±3.9. For the same compound, the fluorescence reduction entry in data set [5] (pH 7.0 compared to pH 4.7) is reported as “almost two-fold”. In addition, on β2AR-YFP fusion protein [7], the no-wash imaging staining result is reported as “strong off-target staining”.
With `Cc1c(CCC(=O)NCCCCNC(=O)c2ccc(C(=O)[O-])c(C3=C4C=CC(=[N+](C)C)C=C4C(C)(C)c4cc(N(C)C)ccc43)c2)cccc1CC(C)(C)NCC(O)c1ccc(O)c2c1OCC(=O)N2` (stereo not drawn) [BI-4C-610CP (16)], at β2AR [1], the “EC50 (mean ± SD, nM)” value is given as “low nanomolar” and the EC50 came out at 7300 ± 1400 pM. Besides, at β2AR-YFP fusion protein [2], the Receptor internalization result was “Yes” and the Staining performance entry was “satisfactory images; also recorded: Medium”. The “Fluorescence increase (F BSA+SDS / F BSA)” value in data set [3] stood at 1.5±0.4.
